Experimental data taken from patent US6710049B2, “Azole compounds as anti-fungal agents” (Ranbaxy Laboratories Limited, priority 2000, dated 2004).
In brackets after ≈: the same amount, converted by molar mass.

How the values were obtained:
[1] = system: A flavus P2 - 1045; experiment: MIC determination (NCCLS broth method); format: cell-based
Source text: (§1) The in-vitro evaluation of the antifungal activity of the compounds can be performed by determining the minimum inhibitory concentration (MIC) as shown in Table 1 which is the concentration of the test compound in Rosewell Park Memorial Institute (RPMI) 1640 liquid medium buffered with 3-(Morpholino)propanesulphonic acid (MOPS) to pH 7, at which there is significant inhibition of the particular fungi. In practice the National Committee for Clinical Laboratory Standard (NCCLS) M27A document for Candida and Cryptococcus and M38P for Aspergillus was used to determine the MIC against yeast and filamentous fungi with suitable modifications for dermatophytes to other filamentous fungi. Three quality control strains were included each time the MIC were determined and readings recorded only when the Quality Control results fell into the acceptable range. After MIC results had been recorded, 100 μl from each of the well showing no growth was spread over Sabouraud Dextrose Agar (SDA) to determine the minimum fungicidal concentration (MFC) as shown in Table 2.

[2] = system: A flavus E3 - 1044; experiment: MIC determination (NCCLS broth method); format: cell-based
Source text: as §1

[3] = system: C krusei 6258; experiment: MIC determination (NCCLS broth method); format: cell-based
Source text: as §1

[4] = system: Fusarium 1050; experiment: MIC determination (NCCLS broth method); format: cell-based
Source text: as §1

[5] = system: Mucor (Ceylon); experiment: MIC determination (NCCLS broth method); format: cell-based
Source text: as §1

[6] = system: Penicillium 191; experiment: MIC determination (NCCLS broth method); format: cell-based
Source text: as §1

[7] = system: C parapsilosis 22019; experiment: MIC determination (NCCLS broth method); format: cell-based
Source text: as §1

[8] = system: Penicillium 2548; experiment: MIC determination (NCCLS broth method); format: cell-based
Source text: as §1

[9] = system: Fusarium 1827C; experiment: MIC determination (NCCLS broth method); format: cell-based
Source text: as §1

[10] = system: C glabrata 90030; experiment: MIC determination (NCCLS broth method); format: cell-based
Source text: as §1

[11] = system: A flavus E2 - 1043; experiment: MIC determination (NCCLS broth method); format: cell-based
Source text: as §1

[12] = system: Alternaria 1051; experiment: MIC determination (NCCLS broth method); format: cell-based
Source text: as §1

[13] = system: A niger P1 - 1046; experiment: MIC determination (NCCLS broth method); format: cell-based
Source text: as §1

[14] = system: A flavus E4 - 1042; experiment: MIC determination (NCCLS broth method); format: cell-based
Source text: as §1

[15] = system: A niger E5 - 1047; experiment: MIC determination (NCCLS broth method); format: cell-based
Source text: as §1

[16] = system: Penicillium I - 1049; experiment: MIC determination (NCCLS broth method); format: cell-based
Source text: as §1

[17] = system: Rhizopus 1052; experiment: MIC determination (NCCLS broth method); format: cell-based
Source text: as §1

[18] = system: Penicillium 3162; experiment: MIC determination (NCCLS broth method); format: cell-based
Source text: as §1

[19] = system: P variotii 22319; experiment: MFC determination (subculture on Sabouraud Dextrose Agar); format: cell-based, Paecillomyces variotii
Source text: as §1

[20] = system: Penicillium spp. isolates; experiment: Comparative in vitro MIC, isolate panel; format: cell-based
Source text: as §1
(§2) A comparative in vitro and in vivo biologically activity data of the compound of our invention, 2-{[1R,2R]-2-(2,4-Difluorophenyl)-2-hydroxy-1-methyl-3-(1H-1,2,4-triazole-1-yl)propyl}-4-[(2′,2′,3′,3′-tetrafluoropropoxyphenyl)-3-(2H,4H)-1,2,4-thiotriazolone (Compound No. 3) with 2-[(1R,2R)-2-(2,4-difluorophenyl)-2-hydroxy-1-methyl-3-(1H-1,2,4-triazol-1-yl)propyl]-4-(2′,2′,3′,3′-tetraflouropropoxyphenyl)-3(2H,4H)-1,2,4-triazolone (TAK 187) and standard antifungal pharmaceuticals is given below: […]

[21] = system: Rhizoupus spp. isolates; experiment: Comparative in vitro MIC, isolate panel; format: cell-based
Source text: as §1, §2

[22] = system: All Filamentous isolates; experiment: Comparative in vitro MIC, isolate panel; format: cell-based
Source text: as §1, §2

[23] = system: Fusarium spp. isolates; experiment: Comparative in vitro MIC, isolate panel; format: cell-based
Source text: as §1, §2

[24] = system: All fungal pathogens; experiment: Comparative in vitro MIC, isolate panel; format: cell-based
Source text: as §1, §2

[25] = system: All Candida isolates; experiment: Comparative in vitro MIC, isolate panel; format: cell-based
Source text: as §1, §2

[26] = system: Aspergillus fumigatus isolates; experiment: Comparative in vitro MIC, isolate panel; format: cell-based
Source text: as §1, §2

In the case of `C[C@@H]1[C@H](O)[C@@H](C)/C=C/C=C/C=C/C=C/C=C/C=C/C=C/[C@H](O[C@@H]2O[C@H](C)[C@@H](O)[C@H](N)[C@@H]2O)C[C@@H]2O[C@](O)(C[C@@H](O)C[C@@H](O)[C@H](O)CC[C@@H](O)C[C@@H](O)CC(=O)O[C@H]1C)C[C@H](O)[C@H]2C(=O)O` [Amphotericin-B, Amphotericin B], the “Minimum Inhibitory Concentration (MIC)” value [1] is reported as 1 µg/mL, the “Minimum Inhibitory Concentration (MIC)” value [2] is reported as 1 µg/mL and the “Minimum Inhibitory Concentration (MIC)” value [3] is reported as 0.25 µg/mL. For the same compound, the “Minimum Inhibitory Concentration (MIC)” value [4] was 0.5 µg/mL, the “Minimum Inhibitory Concentration (MIC)” value [5] was 0.06 µg/mL and the “Minimum Inhibitory Concentration (MIC)” value [6] was 0.25 µg/mL. The “Minimum Inhibitory Concentration (MIC)” value [7] was 0.25 µg/mL, the “Minimum Inhibitory Concentration (MIC)” value [8] was 0.03 µg/mL and the “Minimum Inhibitory Concentration (MIC)” value [9] was over 128 µg/mL. The “Minimum Inhibitory Concentration (MIC)” value [10] was 0.25 µg/mL, the “Minimum Inhibitory Concentration (MIC)” value [11] was 1 µg/mL and the “Minimum Inhibitory Concentration (MIC)” value [12] was 1 µg/mL. For the same compound, the “Minimum Inhibitory Concentration (MIC)” value [13] was 0.25 µg/mL, the “Minimum Inhibitory Concentration (MIC)” value [14] was 0.125 µg/mL and the “Minimum Inhibitory Concentration (MIC)” value [15] was 0.25 µg/mL. The “Minimum Inhibitory Concentration (MIC)” value [16] was 0.25 µg/mL, the “Minimum Inhibitory Concentration (MIC)” value [17] was 0.06 µg/mL and the “Minimum Inhibitory Concentration (MIC)” value [18] was 0.25 µg/mL. For the same compound, the “Minimum Fungicidal Concentration (MFC)” value [19] was 2 µg/mL, the MIC50 [20] was 0.25 µg/mL (≈ 0.271 µM) and the MIC90 [20] was 0.25 µg/mL (≈ 0.271 µM). For the same compound, the “MIC G.M.” value [20] was 0.144 µg/mL (≈ 0.156 µM), the MIC50 [21] was 0.125 µg/mL (≈ 0.135 µM) and the MIC90 [21] was 0.25 µg/mL (≈ 0.271 µM). The “MIC G.M.” value [21] was 0.177 µg/mL (≈ 0.192 µM), the MIC50 [22] was 0.25 µg/mL (≈ 0.271 µM) and the MIC90 [22] was 0.5 µg/mL (≈ 0.541 µM). The “MIC G.M.” value [22] was 0.22 µg/mL (≈ 0.238 µM), the MIC50 [23] was 0.5 µg/mL (≈ 0.541 µM) and the MIC90 [23] was 2 µg/mL (≈ 2.16 µM). The “MIC G.M.” value [23] was 0.841 µg/mL (≈ 0.91 µM), the MIC50 [24] was 0.25 µg/mL (≈ 0.271 µM) and the MIC90 [24] was 0.5 µg/mL (≈ 0.541 µM). For the same compound, the “MIC G.M.” value [24] was 0.21 µg/mL (≈ 0.227 µM), the MIC50 [25] was 0.25 µg/mL (≈ 0.271 µM) and the MIC90 [25] was 0.25 µg/mL (≈ 0.271 µM). The “MIC G.M.” value [25] was 0.22 µg/mL (≈ 0.238 µM), the MIC50 [26] was 0.25 µg/mL (≈ 0.271 µM) and the MIC90 [26] was 0.5 µg/mL (≈ 0.541 µM). For the same compound, the “MIC G.M.” value [26] was 0.27 µg/mL (≈ 0.292 µM).
